Assay: gradient 5% acetonitrile 3 min, to 50% in 2 min, to 85% in 15 min, held 3 min, 100 µL/min
Settings: column: Zorbax Extend-C18 2.1 x 50 mm; eluents: water / acetonitrile, 0.1% formic acid
In short: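 Over 3 months, pure standards in mixtures of ~100 molecules were run by HPLC coupled to a quadrupole time-of-flight mass spectrometer in positive and negative ionization mode. The column was a Zorbax Extend-C18 (2.1 × 50 mm, 1.8 μm) at 100 μL/min, eluted with water and acetonitrile each holding 0.1% formic acid, with 40 μL dead and 900 μL dwell volumes. Retention time was determined from adduct peaks chosen by software and checked manually.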

| RP-LC retention time [s] | SMILES |
| --- | --- |
| 955 | COC(=O)c1ccc(NC(=O)C2CCN(S(=O)(=O)c3c(C)nn(-c4ccccc4)c3C)CC2)cc1 |
| 773 | O=C(c1cccc(Br)c1)N1CCC2(C1)C(=O)Nc1ccccc12 (centres undefined) |
| 1260 | Cc1ccc(Sc2nccnc2N2CCCC(C(=O)Nc3ccc(C)c(F)c3)C2)cc1 (centres undefined) |
| 1030 | CCn1nnc2ccc(-c3noc(-c4ccc(OC)cc4)n3)cc21 |
| 872 | Cc1noc(C2(NC(=O)Nc3cccc(Cl)c3C)CCCCC2)n1 |
| 742 | CCc1ccc(NC(=O)Cn2c(C(C)C)nc3cc4c(cc32)OCCO4)cc1 |
| 897 | CC12CC(c3ccccc3O1)C(C(=O)Nc1cccc(C(F)(F)F)c1)C(=O)N2 (centres undefined) |
| 737 | Cc1c(S(=O)(=O)CCNC(=O)NCc2ccc(F)cc2)c2ccccc2n1C |
| 1080 | Cc1nn(C)c2nc(OC(C)C(=O)NCCc3ccc(Cl)cc3)cc(C(F)(F)F)c12 (centres undefined) |
| 994 | CCCOC(=O)C1=C(C)NC2=C(C(=O)C(C(=O)OC)C(C)C2)C1c1cccc(F)c1 (centres undefined) |
| 1030 | O=C(NCCC1=CCCCC1)C(=O)Nc1cccc([N+](=O)[O-])c1 |
| 574 | Clc1ccc(Cl)c(-c2ccc(CNCC3CCNCC3)o2)c1 |
| 874 | Cc1ccc(S(=O)(=O)c2ccccc2[N+](=O)[O-])cc1 |
| 785 | COc1ccc(Cl)cc1NC(=O)NCC(c1cccnc1)c1cn(C)c2ccccc12 (centres undefined) |
| 968 | O=C(NCc1cccs1)c1ccc(-c2nccnc2N2CCCCC2)cc1 |
| 829 | CCC(C)c1ccccc1NC(=O)C1CCN(C(=O)C(C)(C)C)CC1 (centres undefined) |
| 1050 | Cc1cccc(-c2nnc(-c3cccc(S(=O)(=O)N4CCCC4)c3)o2)c1 |
| 643 | O=C(Cn1cnc2ccccc2c1=O)N1CCC(c2nnc(-c3ccco3)s2)CC1 |
| 688 | CC(C)c1nncn1C1CCN(S(=O)(=O)Cc2ccccc2F)CC1 |
| 884 | N#CCc1ccc(NC(=O)C2CCCN(S(=O)(=O)Cc3ccc(F)cc3)C2)cc1 (centres undefined) |
| 1040 | COc1ccc(-c2noc(Cc3nnc(-c4cc(F)cc(F)c4)o3)n2)cc1 |
| 676 | CCn1nc(C)c(CCNC(=O)c2ccc(-c3ccc4c(c3)CCN4C(C)=O)cc2)c1C |
| 778 | O=C(Nc1cnn(-c2ncncc2N2CCSCC2)c1)C1CCCCC1 |
| 749 | COCC(=O)N(C1CCOCC1)C1CCN(S(=O)(=O)c2ccc(F)cc2)CC1 |
| 997 | CCS(=O)(=O)N1CC(=O)N(c2ccc(F)cc2C)C(C)(C(=O)NC2CCCCCCC2)C1 (centres undefined) |
| 784 | CC(C)(C)n1nnnc1C1CC2(CCOCC2)C(=O)N1Cc1cccc(F)c1 (centres undefined) |
| 597 | NC(=O)C1CCN(Cc2nc(-c3ccc(N4CCSCC4)nc3)no2)CC1 |

The next lines start with the molecule.

| SMILES | RP-LC retention time [s] |
| --- | --- |
| Cc1noc(C)c1S(=O)(=O)N1CCC(c2noc(COCC3CC3)n2)CC1 | 931 |
| COc1ccc(Cn2c(=O)c3sccc3n(Cc3nc(-c4cccc(OC)c4)no3)c2=O)cc1 | 962 |
| Cc1sc(NC(=O)c2ccc(F)cc2)nc1-c1ccc2c(c1)NC(=O)CO2 | 872 |
| CCCNC(=O)C1CCN(c2ccc(SCC(=O)Nc3cc(F)ccc3F)nn2)CC1 | 670 |
| Cc1ccc(-c2ccc(-n3nc(C)c(S(=O)(=O)Nc4ccc5c(c4)OCCO5)c3C)nn2)cc1C | 1100 |
| CCn1nnc2cc(-c3noc(CNC(=O)Cc4ccc(Cl)cc4)n3)ccc21 | 816 |
| CCCNC(=O)c1c(O)c2cccnc2n(-c2ccc(OC)cc2)c1=O | 1080 |
| CCc1ccc(-c2csc(NC(=O)c3cccnc3)n2)cc1 | 924 |
| O=C(Nc1cc(F)cc(F)c1)NC1CCN(c2ccc(F)cc2)C1=O (centres undefined) | 895 |
| CC(=O)N1CCc2cc(N3CC(C(=O)Nc4cccc(C(F)(F)F)c4)CC3=O)ccc21 (centres undefined) | 791 |
| CS(=O)(=O)Nc1ccc([N+](=O)[O-])cc1Oc1ccccc1 | 967 |
| CCC(c1cccs1)N1C(=O)[C@H]2CN(Cc3cccnc3)C[C@H]2C1=O (some centres undefined) | 653 |
| O=C(O)c1ccccc1C(=O)Nc1cccc(Cl)c1 | 701 |
| Cc1ccc(-c2cc3c(N4CCCC(C(=O)NCc5ccc6c(c5)OCO6)C4)nccn3n2)c(C)c1 (centres undefined) | 938 |
| CC(C)Cn1c(=O)c(-c2ccc(C(=O)NCCC3=CCCCC3)cc2)nc2ccccc21 | 1300 |
| O=C(Cc1nnc(-c2ccc3ncccc3c2)o1)Nc1cccc(C(F)(F)F)c1 | 802 |
| Cc1csc(NC(=O)c2ccc(Br)cc2)n1 | 902 |
| CCOc1ncccc1CNC(=O)CNC(C)=O | 568 |
| O=S(=O)(c1cccn2c(SCc3cccc(Br)c3)nnc12)N1CCCCC1 | 930 |
| O=C(Cc1cccc(F)c1)N1CCOc2ccccc2C1 | 844 |
| O=C(NS(=O)(=O)c1ccc(F)cc1)c1ccccc1 | 744 |

| SMILES | RP-LC retention time [s] |
| --- | --- |
| COC(=O)c1c(NC(=O)N2CCCN(c3nc4cccnc4s3)CC2)sc2c1CCCC2 | 1100 |
| O=C(NCc1cc(F)cc(F)c1)C1CCCN(c2nccnc2Sc2ccccc2)C1 (centres undefined) | 1030 |
| CCOC(=O)c1c(C)c(C(=O)C(C)N(CC)C(=O)c2ccccc2Cl)c(C)n1CC (centres undefined) | 1050 |
| Cc1cc(N2CCCC2)n2nc(CN3CCCCC3C)nc2n1 (centres undefined) | 566 |
| Cc1cccc(-c2nc(N)n(C(=O)C(C)C)n2)c1 | 970 |
| COc1ccc(Cl)cc1C(=O)Nc1nc2c(s1)Cc1c(Br)ccc(OC)c1-2 | 1350 |
| CCOC(=O)C1CCN(C(=O)Cn2nc3cc(-c4ccccc4)nc(C)n3c2=O)CC1 | 858 |
| COc1ccc(N2CCN(c3ncc4c(n3)CCN(Cc3ccccc3Cl)C4)CC2)cc1 | 667 |
| O=C(NCCCN1CCCCC1)C1CCN(c2cncnc2N2CCCCC2)CC1 | 569 |
| CN(CC1CCOCC1)S(=O)(=O)Cc1ccccc1 | 787 |
| CCOc1cc(-c2nc(C3CC(=O)N(c4ccc(OC)c(OC)c4)C3)no2)cc(OCC)c1OCC (centres undefined) | 1060 |
| Cc1ccc(Nc2nc(N)nc(CN3CCN(c4ccccn4)CC3)n2)cc1 | 590 |
| COc1cccc(NC(=O)C2CCCN(c3nnc4ccc(Cl)cn34)C2)c1 (centres undefined) | 774 |
| COCc1cc(=O)n2c(n1)N(Cc1cccc(C#N)c1)CC2 | 669 |
| O=C(CN1C(=O)CCC1=O)N1CC(c2nc(-c3cccc(C(F)(F)F)c3)no2)C1 | 754 |
| CCOC(=O)c1noc2ncnc(NCc3ccc(C)cc3)c12 | 936 |
| CC(C)(C)c1ccc2c(c1)OCC(=O)N2Cc1nc(-c2ccc3c(c2)OCO3)no1 | 1200 |
| CCCNC(=O)NCCC1CCN(S(=O)(=O)c2ccc(C)cc2)CC1 | 742 |
| CCOC(=O)C1CCN(c2cc3c(cc2NC(=O)NCC(C)C)n(C)c(=O)n3C)CC1 | 685 |
| COc1ccc(CNC(=O)N2C[C@@H]3CN(S(=O)(=O)c4cccc(F)c4)C[C@H](C2)O3)cc1 | 771 |
| COc1ccccc1CCNS(=O)(=O)c1cc2c3c(c1)CCC(=O)N3CCC2 | 882 |

| SMILES | RP-LC retention time [s] |
| --- | --- |
| CC(=O)N1CCc2cc(-c3ccc(C(=O)N4CCN(c5ncccn5)CC4)cc3)ccc21 | 771 |
| CCCCOC(=O)c1ccc(NC(=O)c2snnc2CC)cc1 | 1010 |
| CCCC(=O)Nc1ccc(CCc2nc3ccc(C(=O)NCC(C)C)cc3[nH]2)cc1 | 646 |
| COc1ccc(O)c2c(=O)c3c(OC)cc4c(c3oc12)[C@@H]1C=CO[C@@H]1O4 | 979 |
| O=C(c1ccoc1)N1CCC2(CC1)N=C(c1cccc(Br)c1)NO2 | 763 |
| Cc1c(S(=O)(=O)N2CCCC(C)C2)c(C)n(C)c1C(=O)Nc1cccc(F)c1 (centres undefined) | 1100 |
| O=C(NC1CCN(c2nnc3ccc(Cl)cn23)CC1)c1ccco1 | 606 |
| CC1=C(c2cccc(Cl)c2)S(=O)(=O)N=C1N1CCCN(C(=O)C2CCC2)CC1 | 850 |
| COc1cccc(-c2nc(-c3cccc(-c4ccn[nH]4)c3)no2)c1 | 1010 |
| O=C(NCc1ccc2c(c1)OCO2)C1COC2(CCN(C(=O)C3CC3)CC2)N1C(=O)c1ccccc1 (centres undefined) | 692 |
| Cc1cccc2c(=O)n(C3CCN(C(=O)Nc4ccccc4)CC3)cnc12 | 751 |
| CCOc1cccc(C2c3[nH]c4ccccc4c3CCN2C(=O)c2ccco2)c1 (centres undefined) | 1130 |
| O=C(Nc1ccc2c(c1)N(C(=O)c1ccco1)CC2)c1ccc2c(c1)OCO2 | 770 |
| Cc1noc(C2(NC(=O)c3ccc4c(c3)OCO4)CCCCC2)n1 | 758 |
| COc1cc(NC(=O)C2=Cc3cc(Br)ccc3OC2)cc(OC)c1OC | 997 |
| CC(=O)NCc1nc(-c2ccc(Oc3ccc(NC(C)=O)cc3)cc2)no1 | 662 |
| CCOc1ccc(NC(=O)c2c(NC(C)=O)sc3c2CCCC3)cc1 | 1090 |
| Cc1ccc(CN2N=C(C(=O)N3CCC(C)CC3)S(=O)(=O)c3ccccc32)cc1 | 1060 |
| Cc1ccc(C)c(N2CCN(c3ccncc3N)CC2)c1 | 777 |
| Cc1ccc(CNC(=O)Cc2nnc(-c3cnccn3)o2)cc1C | 720 |

From the METLIN SMRT retention time set (Domingo-Almenara et al. 2019)
